In assay [1] the target is T1, Cyclin-dependent kinase 2 (Homo sapiens, UniProt P24941). Nature of the assay: Binding affinity to human CDK2 by isothermal titration calorimetric analysis. On the technique in general: ITC needs no label: the signal is the heat of the interaction.
Assay [2] deals with T1, Cyclin-dependent kinase 2. Put plainly: Binding affinity to N-terminal His-tagged human CDK2 expressed in Escherichia coli BL21-AI by STD-NMR analysis.
For assay [3], the species on record is Homo sapiens. Nature of the assay: Inhibition of human PKA assessed as enzyme activity using PKA peptide as substrate at 5 uM incubated for 120 mins in presence of 33-P ATP by kinase phosphorylation assay. Also on record: scale not given: the % may be the effect or the level left.
Assay [4] concerns the target T2, CDK2/Cyclin A2 (Homo sapiens) (UniProt P24941+P20248). Nature of the assay: Inhibition of recombinant full-length human Cdk2/cyclin A assessed as enzyme activity using histone H1 as substrate at 5 uM incubated for 120 mins in presence of 33-P ATP by kinase phosphorylation assay. It is filed as protein-complex assay. Also noted: scale not given: the % may be the effect or the level left.

Assay [5] has as its target T3, Cyclin-dependent kinase 2/cyclin E1 (Homo sapiens) (UniProt P24864+P24941). Put plainly: Inhibition of recombinant full-length human Cdk2/cyclin E assessed as enzyme activity using histone H1 as substrate at 5 uM incubated for 120 mins in presence of 33-P ATP by kinase phosphorylation assay. It is filed as protein-complex assay. Also on record: scale not given: the % may be the effect or the level left.

The next assay addresses CDK2/Cyclin A2 (Homo sapiens, UniProt P24941). Nature of the assay: Inhibition of recombinant full-length human Cdk2/cyclin A using histone H1 as substrate incubated for 120 mins in presence of 33-P ATP by kinase phosphorylation assay. It is filed as protein-complex assay.
The target of assay [6] is ALK tyrosine kinase receptor (Homo sapiens) (UniProt Q9UM73). Put plainly: Inhibition of human ALK assessed as enzyme activity using pEY as substrate at 5 uM incubated for 120 mins in presence of 33-P ATP by kinase phosphorylation assay. Also on record: scale not given: the % may be the effect or the level left.
Sequence of ALK tyrosine kinase receptor (Homo sapiens) (Q9UM73 19-1620 limits assumed): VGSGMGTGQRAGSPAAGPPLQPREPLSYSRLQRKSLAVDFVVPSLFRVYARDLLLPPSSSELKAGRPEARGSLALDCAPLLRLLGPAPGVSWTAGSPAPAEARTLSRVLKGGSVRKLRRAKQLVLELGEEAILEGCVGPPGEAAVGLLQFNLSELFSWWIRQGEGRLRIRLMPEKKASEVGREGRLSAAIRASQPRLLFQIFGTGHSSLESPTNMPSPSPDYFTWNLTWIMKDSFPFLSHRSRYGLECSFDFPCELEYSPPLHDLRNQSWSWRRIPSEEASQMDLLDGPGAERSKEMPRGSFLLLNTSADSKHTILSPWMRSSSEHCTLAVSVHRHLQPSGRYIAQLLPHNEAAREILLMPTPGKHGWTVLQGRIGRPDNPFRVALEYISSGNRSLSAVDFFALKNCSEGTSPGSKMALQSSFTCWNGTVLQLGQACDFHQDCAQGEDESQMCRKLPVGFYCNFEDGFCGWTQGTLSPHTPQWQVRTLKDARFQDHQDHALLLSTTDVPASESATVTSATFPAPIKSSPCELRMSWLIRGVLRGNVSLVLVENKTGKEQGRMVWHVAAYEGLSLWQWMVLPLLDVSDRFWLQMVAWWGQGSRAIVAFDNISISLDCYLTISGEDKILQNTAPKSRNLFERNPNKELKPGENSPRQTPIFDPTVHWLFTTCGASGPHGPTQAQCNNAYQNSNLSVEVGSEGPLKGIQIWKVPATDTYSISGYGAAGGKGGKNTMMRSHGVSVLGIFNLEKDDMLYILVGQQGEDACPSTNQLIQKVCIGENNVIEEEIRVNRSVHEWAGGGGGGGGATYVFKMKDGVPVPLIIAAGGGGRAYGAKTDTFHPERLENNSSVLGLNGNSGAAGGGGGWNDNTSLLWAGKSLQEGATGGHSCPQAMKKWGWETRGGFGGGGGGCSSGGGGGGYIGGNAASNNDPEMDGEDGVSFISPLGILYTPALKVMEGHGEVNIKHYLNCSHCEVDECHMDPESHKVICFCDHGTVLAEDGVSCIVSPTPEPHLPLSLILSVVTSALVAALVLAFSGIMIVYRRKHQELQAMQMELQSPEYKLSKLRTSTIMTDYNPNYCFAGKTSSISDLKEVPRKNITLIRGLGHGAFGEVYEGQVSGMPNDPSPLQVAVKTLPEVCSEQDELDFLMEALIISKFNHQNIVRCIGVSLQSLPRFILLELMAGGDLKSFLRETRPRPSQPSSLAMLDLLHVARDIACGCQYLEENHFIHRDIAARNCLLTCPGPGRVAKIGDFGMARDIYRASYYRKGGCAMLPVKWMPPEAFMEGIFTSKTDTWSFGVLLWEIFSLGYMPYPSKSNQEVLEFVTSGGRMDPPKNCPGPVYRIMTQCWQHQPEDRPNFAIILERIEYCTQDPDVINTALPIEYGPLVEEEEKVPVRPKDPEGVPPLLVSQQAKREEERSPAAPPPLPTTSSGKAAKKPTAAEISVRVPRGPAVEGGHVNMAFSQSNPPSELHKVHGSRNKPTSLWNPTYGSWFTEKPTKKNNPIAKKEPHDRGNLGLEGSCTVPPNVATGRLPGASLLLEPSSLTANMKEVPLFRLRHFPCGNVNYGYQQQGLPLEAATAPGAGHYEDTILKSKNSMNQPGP
The target of assay [7] is T2, CDK2/Cyclin A2 (Homo sapiens). Nature of the assay: Inhibition of recombinant full-length human Cdk2/cyclin A assessed as enzyme activity using histone H1 as substrate at 100 uM incubated for 120 mins in presence of 33-P ATP by kinase phosphorylation assay. Type of assay: protein-complex assay. Also on record: scale not given: the % may be the effect or the level left.

Assay [8] has as its target T3, Cyclin-dependent kinase 2/cyclin E1 (Homo sapiens). Put plainly: Inhibition of recombinant full-length human Cdk2/cyclin E assessed as enzyme activity using histone H1 as substrate at 100 uM incubated for 120 mins in presence of 33-P ATP by kinase phosphorylation assay. It is filed as protein-complex assay. Also noted: scale not given: the % may be the effect or the level left.

The species named for assay [9] is Homo sapiens. Nature of the assay: Inhibition of human PKA assessed as enzyme activity using PKA peptide as substrate at 100 uM incubated for 120 mins in presence of 33-P ATP by kinase phosphorylation assay. Also noted: scale not given: the % may be the effect or the level left.

Structures are written as SMILES. The source made the active and inactive calls. The calls are words filed in the database; no cut-off is given here.

As usually defined, the Kd is the equilibrium constant for the complex coming apart. With `Nc1ncnc2c1ncn2[C@@H]1O[C@H](CO)[C@@H](O)[C@H]1O` [ADENOSINE], the Kd in assay [1] amounted to 184 µM.

Regarding `O=S(=O)(c1cccc2cnccc12)N1CCCNCC1`, the outcome in assay [2] was Active.

In the case of `Cc1ccc(Cn2cc(-n3c(-c4ccc(Cn5nc(C)c(Cl)c5C)o4)n[nH]c3=S)cn2)cc1`, the outcome in assay [2] was inactive.

With `Cc1ccc(Cn2cc(-n3c(-c4ccc(Cn5cc(Cl)cn5)cc4)n[nH]c3=S)cn2)cc1`, the result in [2] was inactive.

The IC50 is the point on the concentration scale where inhibition reaches its midpoint. Turning to `Cc1nc2[nH]n(-c3ccccc3)c(=O)c2c2c1c(=O)oc1ccc(Br)cc12`, the Activity in the assay filed under Homo sapiens [3] was determined as 115%; in assay [4], 35%; in assay [5], 95%; in assay [6], 87%. The IC50 on CDK2/Cyclin A2 amounted to 2.6 µM.

As for `N=C(N)NCCNS(=O)(=O)c1cccc2cnccc12`, in assay [1], binding was characterised by a dissociation constant (Kd) of 286 µM. Besides, in [2], the outcome was Active.

As to `CC(C)=CCNc1ncnc2[nH]cnc12`, the result in assay [2] was Active.

`c1ccc(CNc2ncnc3nc[nH]c23)cc1` [6-BENZYLAMINOPURINE] gave a Kd in assay [1] of 62 µM.

Take `CNc1ncnc2ccc([N+](=O)[O-])cc12`: binding in [1] was put at a Kd of 208 µM. Also, in assay [2], the result was Active.

Take `Cc1ccc(Cn2nccc2-n2c(-c3cc(C)n(C)n3)n[nH]c2=S)cc1`: the Activity in assay [7] came out at 69%; in assay [8], 96%; in the assay listed under Homo sapiens [9], 99%. The IC50 at CDK2/Cyclin A2 is 1000 µM. Moreover, in assay [2], the outcome was Active.

As for `Cc1ccc(Cn2cc(-n3c(-c4ccc(Cn5cccn5)cc4)n[nH]c3=S)cn2)cc1`, the result in [2] was inactive.

For the compound `c1ccc(CNc2ncnc3[nH]cnc23)cc1`, the result in assay [2] was Active.

For the compound `Cc1ccc(Cn2cc(-n3c(-c4ccc(Cn5nc(C)cc5C)o4)n[nH]c3=S)cn2)cc1`, the result in [2] was inactive.

Consider `CC(C)=CCNc1ncnc2nc[nH]c12`, for which the Kd in assay [1] came out at 35 µM.

The record behind these values is ChEMBL document CHEMBL3751749, “Identification of new hit scaffolds by [sequence]-guided virtual screening” (Medchemcomm, 2015).
